Test results taken from patent US9499538B2, “Estrogen receptor modulators and uses thereof” (Seragon Pharmaceuticals, Inc., priority 2012, dated 2016).

Experiments:
MCF-7 cells = experiment: Breast Cancer Cell Viability Assays (MCF-7, CellTiter-Glo); format: cell-based; conditions: 5 days' compound exposure; for IC50: Homo sapiens, MCF7, 120 h
Procedure: MCF-7 cells were adjusted to a concentration of 20,000 cells per mL in RPMI containing 10% FBS and 20 mM HEPES. 16 microliters of the cell suspension (320 cells) was added to each well of a 384 well plate, and the cells were incubated overnight to allow the cells to adhere. The following day an eleven point, serial semilog dilution of each compound was added to the cells in 16 μL at a final concentration ranging from 0.3-0.000003 μM. After 5 days' compound exposure, 16 μL of CellTiter-GLo (Promega, Madison Wis.) was added to the cells, and the relative luminescence units (RLUs) of each well were determined. CellTiter-Glo added to 32 μL of medium without cells was used to obtain a background value. The Percent viability of each sample was determined as follows: (RLU sample−RLU background/RLU untreated cells−RLU background)×100=% viability. […]

ER-α in MCF-7 cells = target: T1, ER-α in MCF-7 cells (Homo sapiens, UniProt P03372); experiment: Breast Cancer Cell ER-α In Cell Western Assay (SP1); format: cell-based; conditions: 4 or 24 hr post compound addition; for Emax: MCF7, SP1 antibody, read-out: ER-α In Cell Western Assay (SP1) Max Response; for DC50: SP1 antibody, read-out: ER-α In Cell Western Assay (SP1) IC50
T1 construct: endogenous in cells; host or cells: MCF-7
T1 sequence (P03372 1-595): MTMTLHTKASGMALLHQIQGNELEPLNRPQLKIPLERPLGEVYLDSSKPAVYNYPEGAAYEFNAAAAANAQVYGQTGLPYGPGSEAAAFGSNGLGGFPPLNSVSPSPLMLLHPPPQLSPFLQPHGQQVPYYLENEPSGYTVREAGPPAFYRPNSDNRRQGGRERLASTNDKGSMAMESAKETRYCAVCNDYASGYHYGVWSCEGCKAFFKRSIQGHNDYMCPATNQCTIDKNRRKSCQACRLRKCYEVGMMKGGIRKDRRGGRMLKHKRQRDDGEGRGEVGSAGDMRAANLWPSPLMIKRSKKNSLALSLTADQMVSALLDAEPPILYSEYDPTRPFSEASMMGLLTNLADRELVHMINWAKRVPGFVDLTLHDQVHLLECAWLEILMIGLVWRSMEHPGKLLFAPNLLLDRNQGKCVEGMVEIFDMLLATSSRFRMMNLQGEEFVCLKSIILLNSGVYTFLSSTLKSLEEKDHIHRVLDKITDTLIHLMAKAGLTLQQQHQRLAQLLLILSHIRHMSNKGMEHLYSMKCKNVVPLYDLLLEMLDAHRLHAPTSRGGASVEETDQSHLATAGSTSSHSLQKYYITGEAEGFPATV
Procedure: MCF-7 cells were adjusted to a concentration of 200,000 cells per mL in RPMI containing 10% charcoal-stripped FBS and 20 mM HEPES. 16 microliters of the cell suspension (3200 cells) was added to each well of a poly-D-lysine 384 well plate, and the cells were incubated overnight to allow the cells to adhere. The following day an eleven point, serial semilog dilution of each compound was added to the cells in 16 μL at a final concentration ranging from 0.3-0.000003 μM. At 4 or 24 hr post compound addition, the cells were fixed (10% formalin in PBS) for 20 minutes. Cells were permeablized in PBS 0.1% Triton and blocked with LICOR blocking buffer (50 μl/well, 90′). The wells were then incubated overnight at 4° C. with SP1 rabbit monoclonal Ab (Thermo Scientific) diluted 1:1000 in LICOR blocking buffer/0.1% Tween-20. Wells which were treated with blocking buffer with Tween but no antibody were used as a background control. Wells were washed with 0.1% Tween-20/PBS and then incubated in goat anti-rabbit IRDye™ 800CW (LICOR Inc.; 1:10000) and DRAQ5 DNA dye (1:2000 for 2 mM stock) diluted in LICOR blocking buffer containing 0.1% Tween-20 and 0.01% SDS for 60 minutes. Cells were washed (50 μl/well, 5′ each) in 0.1% Tween-20/PBS. Plates were scanned on a LICOR Odyssey infrared imaging system. Integrated intensities in the 800 nm channel and 700 nm channel were measured to determine levels of ER and DNA respectively. Percent ER levels were determined as follows: (Integrated intensity 800 nm sample/integrated intensity 700 nm sample)/(Integrated intensity 800 nm untreated cells/integrated intensity 700 nm untreated cells)×100=% ER levels. […]

| IC50 (MCF-7 cells) [nM] | Emax (ER-α in MCF-7 cells) [%] | DC50 (ER-α in MCF-7 cells) [nM] | SMILES | MCF7 Viability Assay Max Response (MCF-7 cells) |
| --- | --- | --- | --- | --- |
| > 100 | ≥ 40 | > 100 | O=C(O)/C=C/c1ccc(/C(=C(\c2ccccc2)C2CCC2)c2cc(F)c3[nH]ncc3c2F)cc1 [Example 22, (E)-3-(4-((E)-2-Cyclobutyl-1-(4,7-difluoro-1H-indazol-5-yl)-2-phenylvinyl)phenyl)acrylic acid] | ++ (++ = a single % value ≧ 40%) |
| ≤ 100 | ≥ 40 | ≤ 100 | COc1ccc(/C(=C(\c2ccc(/C=C/C(=O)O)cc2)c2ccc3[nH]nc(F)c3c2)C2CCC2)cc1 [Example 23, (E)-3-(4-((E)-2-Cyclobutyl-1-(3-fluoro-1H-indazol-5-yl)-2-(4-methoxyphenyl)vinyl)phenyl)acrylic acid] | ++ (++ = a single % value ≧ 40%) |
| ≤ 100 | ≥ 40 | ≤ 100 | O=C(O)/C=C/c1ccc(/C(=C(\c2ccccc2)C2CCC2)c2ccc3[nH]c(=O)oc3c2)cc1 [Example 27, (E)-3-(4-((E)-2-Cyclobutyl-1-(2-oxo-2,3-dihydrobenzo[d]oxazol-6-yl)-2-phenylvinyl)phenyl)acrylic acid] | ++ (++ = a single % value ≧ 40%) |
| ≤ 100 | ≥ 40 | ≤ 100 | COc1cccc(/C(=C(\c2ccc(/C=C/C(=O)O)cc2)c2ccc3[nH]nc(F)c3c2)C2CC2)c1 [Example 31, (E)-3-(4-((E)-2-Cyclopropyl-1-(3-fluoro-1H-indazol-5-yl)-2-(3-methoxyphenyl)vinyl)phenyl)acrylic acid] | ++ (++ = a single % value ≧ 40%) |
| > 100 | ≥ 40 | > 100 | CC/C(=C(/c1ccc(/C=C/C(=O)O)cc1)c1cc(F)c2[nH]ncc2c1F)c1ccccc1 [Example 32, (E)-3-(4-((E)-1-(4,7-Difluoro-1H-indazol-5-yl)-2-phenylbut-1-en-1-yl)phenyl)acrylic acid] | ++ (++ = a single % value ≧ 40%) |
| ≤ 100 | ≥ 40 | ≤ 100 | O=C(O)/C=C/c1ccc(/C(=C(\c2ccccc2)C2CCC2)c2ccc3[nH]nc(F)c3c2)cn1 [Example 36, (E)-3-(5-((Z)-2-Cyclobutyl-1-(3-fluoro-1H-indazol-5-yl)-2-phenylvinyl)pyridin-2-yl)acrylic acid] | ++ (++ = a single % value ≧ 40%) |

Continued, molecule first:

| SMILES | IC50 (MCF-7 cells) [nM] | Emax (ER-α in MCF-7 cells) [%] | DC50 (ER-α in MCF-7 cells) [nM] | MCF7 Viability Assay Max Response (MCF-7 cells) |
| --- | --- | --- | --- | --- |
| Cc1cscc1/C(=C(\c1ccc(/C=C/C(=O)O)cc1)c1ccc2scnc2c1)C(C)C [Example 20, (E)-3-(4-((E)-1-(Benzo[d]thiazol-5-yl)-3-methyl-2-(4-methylthiophen-3-yl)but-1-en-1-yl)phenyl)acrylic acid] | ≤ 100 | ≥ 40 | ≤ 100 | ++ (++ = a single % value ≧ 40%) |
| N#Cc1c(/C(=C(/c2ccccc2)C2CCC2)c2ccc(/C=C/C(=O)O)cc2)ccc2scnc12 [Example 21, (E)-3-(4-((E)-1-(4-Cyanobenzo[d]thiazol-5-yl)-2-cyclobutyl-2-phenylvinyl)phenyl)acrylic acid] | ≤ 100 | ≥ 40 | ≤ 100 | ++ (++ = a single % value ≧ 40%) |
| COc1cccc(/C(=C(\c2ccc(/C=C/C(=O)O)cc2)c2ccc3[nH]nc(F)c3c2)C2CCC2)c1 [Example 24, (E)-3-(4-((E)-2-Cyclobutyl-1-(3-fluoro-1H-indazol-5-yl)-2-(3-methoxyphenyl)vinyl)phenyl)acrylic acid] | ≤ 100 | ≥ 40 | ≤ 100 | ++ (++ = a single % value ≧ 40%) |
| O=C(O)/C=C/c1ccc(/C(=C(\c2ccccc2)C2CCC2)c2ccc3[nH]ncc3c2F)cc1 [Example 25, (E)-3-(4-((E)-2-Cyclobutyl-1-(4-fluoro-1H-indazol-5-yl)-2-phenylvinyl)phenyl)acrylic acid] | ≤ 100 | ≥ 40 | ≤ 100 | ++ (++ = a single % value ≧ 40%) |
| O=C(O)/C=C/c1ccc(/C(=C(\c2ccccc2)C2CC2)c2ccc3[nH]nc(F)c3c2)cc1 [Example 26, (E)-3-(4-((E)-2-Cyclopropyl-1-(3-fluoro-1H-indazol-5-yl)-2-phenylvinyl)phenyl)acrylic acid] | ≤ 100 | ≥ 40 | ≤ 100 | ++ (++ = a single % value ≧ 40%) |
| O=C(O)/C=C/c1ccc(/C(=C(\c2ccc(F)cc2Cl)C2CCC2)c2ccc3[nH]c(=O)oc3c2)cc1 [Example 28, (E)-3-(4-((E)-2-(2-Chloro-4-fluorophenyl)-2-cyclobutyl-1-(2-oxo-2,3-dihydrobenzo[d]oxazol-6-yl)vinyl)phenyl)acrylic acid] | ≤ 100 | ≥ 40 | ≤ 100 | ++ (++ = a single % value ≧ 40%) |
| Cc1ccccc1/C(=C(\c1ccc(/C=C/C(=O)O)cc1)c1ccc2[nH]nc(F)c2c1)C1CC1 [Example 29, (E)-3-(4-((E)-2-Cyclopropyl-1-(3-fluoro-1H-indazol-5-yl)-2-(o-tolyl)vinyl)phenyl)acrylic acid] | ≤ 100 | ≥ 40 | ≤ 100 | ++ (++ = a single % value ≧ 40%) |
| COc1ccc(/C(=C(\c2ccc(/C=C/C(=O)O)cc2)c2ccc3[nH]nc(F)c3c2)C2CC2)cc1 [Example 30, (E)-3-(4-((E)-2-Cyclopropyl-1-(3-fluoro-1H-indazol-5-yl)-2-(4-methoxyphenyl)vinyl)phenyl)acrylic acid] | ≤ 100 | ≥ 40 | ≤ 100 | ++ (++ = a single % value ≧ 40%) |
| O=C(O)/C=C/c1ccc(/C(=C(\c2ccccc2)C2CCC2)c2ccc3[nH]ncc3n2)cc1 [Example 33, (E)-3-(4-((E)-2-Cyclobutyl-2-phenyl-1-(1H-pyrazolo[4,3-b]pyridin-5-yl)vinyl)phenyl)acrylic acid] | ≤ 100 | ≥ 40 | ≤ 100 | ++ (++ = a single % value ≧ 40%) |
| O=C(O)/C=C/c1ccc(/C(=C(\c2ccc(F)cc2Cl)C2CCC2)c2ccc3[nH]ncc3n2)cc1 [Example 34, (E)-3-(4-((E)-2-(2-Chloro-4-fluorophenyl)-2-cyclobutyl-1-(1H-pyrazolo[4,3-b]pyridin-5-yl)vinyl)phenyl)acrylic acid] | ≤ 100 | ≥ 40 | ≤ 100 | ++ (++ = a single % value ≧ 40%) |
| CC(C)/C(=C(/c1ccc(/C=C/C(=O)O)cc1)c1ccc2[nH]ncc2c1)c1ccccc1Cl [Example 35, (E)-3-(4-((E)-2-(2-Chlorophenyl)-1-(1H-indazol-5-yl)-3-methylbut-1-en-1-yl)phenyl)acrylic acid] | ≤ 100 | ≥ 40 | ≤ 100 | ++ (++ = a single % value ≧ 40%) |
| Cc1cc(/C(=C(\c2ccccc2)C2CCC2)c2ccc3[nH]nc(F)c3c2)ccc1/C=C/C(=O)O [Example 37, (E)-3-(4-((E)-2-Cyclobutyl-1-(3-fluoro-1H-indazol-5-yl)-2-phenylvinyl)-2-methylphenyl)acrylic acid] | ≤ 100 | ≥ 40 | ≤ 100 | ++ (++ = a single % value ≧ 40%) |
